{
  "source": "patent US12117402B2",
  "about": "“Bioluminescent sensor for isothiocyanates” (The United States of America, as represented by the …, priority 2021, dated 2024)",
  "key": {"[1]": {"system": "P. fluorescens SBW25 expressing an ilux operon under control of the saxA promoter", "assay_type": "cell-based, Pseudomonas fluorescens SBW25", "conditions": "for responsiveness of the biosensor to the compound: FIG. 4", "protocol": "(§1) For the basic microplate assay, the reporter biosensor was cultivated overnight in LB media with 50 μg/mL carbenicillin and 15 μg/mL gentamicin. The 200 μL assay was performed in opaque 96-well microtiter plates by adding ITC sample to the reporter cells at a final concentration of 0.05 OD600 in LB medium. All assay plates included cell-only controls (no ITC sample). Luminescence was measured in either a microplate spectrophotometer (Biotek Synergy HT) or a designated luminometer (Molecular Devices Spectramax L) for a 20-hour period in 15-minute intervals with ˜500 RPM shaking. Data were collected using auto-scaled gain or photon counting to increase signal detection. Modifications to the assay for the luxCDABE-based biosensor included a lower bacterial OD600 of 0.005, incubation at 31° C., and measurement every 30 min.\nTo increase the luminescent signal, the luxCDABE operon of the pHT #3 plasmid was replaced with the enhanced ilux operon that has an additional open reading frame encoding flavin mononucleotide (FMN) reductase and other optimizations (Gregor et al, Proc. Natl. Acad. Sci., (2018) 115(3): 962-967). All other components remained the same as the precursor, and this plasmid was assembled using the Gibson Assembly method (Gibson et al, Nature Meth., (2009) 6(5):343-347). The resulting plasmid, named pHT #9, was integrated into the P. fluorescens SBW25 genome in the same manner as pHT #3.\nPlant extracts were prepared from seeds germinated in small petri dishes containing 0.5×Murashige and Skoog Medium and 0.3% agar for up to 4-days under artificial lighting. Germinated seeds and/or seedlings were transferred to 2-mL screwcap tubes containing steel beads. Water was added at a 1:2 ratio of plant weight to water volume. The tissue was macerated and pelleted by centrifugation. Supernatants were diluted prior to use in the basic microplate protocol.\nTo analyze the ability of the biosensor to detect ITCs in plant residues, seed meal was incubated on a rotating shaker at room temperature for 24 hrs with a 1:10 seed meal:water ratio (by mass) in 2.0 mL microcentrifuge tubes. Centrifuging and assaying of supernatant were conducted as described above for seedlings. Two seed meal types were tested—Sinapis alba (white mustard) and Brassica juncea (Indian mustard)—both of which are used in commercial biofumigation.\nBiofumigated soil was collected from a field study in Hermiston, Oregon. The soils were managed in a 3-yr rotation with a Brassica cover crop mix (B. juncea Caliente 199 and Caliente Rojo; allyl ITC). The Brassica cover crop was tilled into the soil the day prior to sampling and the soils were stored frozen until analysis. […] Frozen soils were thawed and subsamples were homogenized (1600 MiniG homogenizer, 1500 RPM, 7 min), and rotated at room temperature for 45 min to allow time for glucosinolate hydrolysis. The sample was centrifuged for 5 min at 4,000×g and 100 μL extract was used in the basic microplate assay.\nFor analysis of seed meal amended soil, B. napus and S. alba seed meals were each added to a moist silt loam soils at 0.3% and 3% weight/dry weight. The soil/seed meals were mixed, transferred to small zippered bags and stored in gas-impermeable bags at room temperature. Soil amended with wheat straw and unamended soil were included as ITC-free controls."}, "[2]": {"system": "P. fluorescens SBW25 expressing the luxCDABE operon under control of the saxA promoter", "from_the_text": "The plasmid vector pUC18T-Tn7T-lux-Gm (Damron et al., Appl. Environ. Microbiol. (2013) 79(13): 4149-4153), which contains Tn7 sites for integration into the P. fluorescens genome, a luxCDABE operon responsible for bioluminescence, and a gentamicin resistance marker. This plasmid also contained a pl promoter, an unregulated promoter upstream of the luxCDABE operon, which was removed and replaced with the desired promoter.\nThe saxA promoter was PCR amplified from Pseudomonas cannabina and cloned upstream of the luxCDABE gene operon. […] The resulting plasmid containing the luxCDABE operon under control of the saxA promoter was termed pHT #3. This plasmid was transformed into P. fluorescens SBW25, via electroporation and selected for gentamicin resistance.\nas §1"}, "[3]": {"conditions": "aqueous solutions, pH 6; cited from earlier work"}},
  "data": [
    {"smiles": "N#C[S-].[K+]", "note": "[potassium thiocyanate]", "values": [
      {"measurement": "responsiveness of the biosensor to the compound", "setting": "[1]", "result": "did not respond"}
    ]},
    {"smiles": "C[S+]([O-])CCCCN=C=S", "note": "(centres unmarked) [sulforaphane]", "values": [
      {"measurement": "response of luminescence to the amount of ITC", "setting": "[2]; 0, 25, 50, 75, 100 μM", "result": "dose dependent response"},
      {"measurement": "area under the curve (AUC) value of luminescence", "setting": "[2]; 100 μM of ITC", "result": "1.5×10^7"},
      {"measurement": "peak luminescence", "setting": "[2]; 100 μM of ITC", "result": "approximately 700 relative light units (RLUs)"},
      {"measurement": "time of peak luminescence after inoculation", "setting": "[2]; regardless of the concentration, 0-100 μM", "result": "8 to 9", "unit": "h"},
      {"measurement": "time of initial peak luminescence", "setting": "[1]", "result": "4 to 4.5", "unit": "h"},
      {"measurement": "response of luminescence to the amount of ITC", "setting": "[1]; 0, 5, 10, 25, 50, 75, 100 μM", "result": "dose-dependent response"},
      {"measurement": "increase in AUC compared to the luxCDABE biosensor", "setting": "[1]; 100 μM dose", "result": 2, "unit": "fold"},
      {"measurement": "increase in the maximum RLU compared to the luxCDABE biosensor", "setting": "[1]; 100 μM dose", "result": 7.7, "unit": "fold"},
      {"measurement": "responsiveness of the biosensor to the compound", "setting": "[1]", "result": "responsive"},
      {"measurement": "concentrations detected (limits of detection)", "setting": "[1]; low-dose range 0-20 μM", "result": "1 to 2", "unit": "µM"}
    ]},
    {"smiles": "CNC(=S)S", "note": "[Metam-sodium]", "values": [
      {"measurement": "responsiveness of the biosensor to the compound", "setting": "[1]", "result": "responsive"}
    ]},
    {"smiles": "Oc1ccc(CN=C=S)cc1", "note": "[4-hydroxybenzyl ITC]", "values": [
      {"measurement": "half-life", "setting": "[3]", "result": 6, "unit": "min"},
      {"measurement": "responsiveness of the biosensor to the compound", "setting": "[1]", "result": "did not respond"}
    ]}
  ]
}
